# Measured values from the kinase profiling compilation of Christmann-Franck et al. (2016).
# Tests used:
# Assay in all cases: radiometric filter-binding kinase assay
# [1] = target: CaMK1 (human) (UniProt Q14012)
# [2] = target: CSNK1D (human) (UniProt P48730)
# [3] = target: RIPK2 (human) (UniProt O43353)
# [4] = target: MAPK9 (human) (UniProt P45984)
# [5] = target: CAMKK2 (human) (UniProt Q96RR4)
# [6] = target: AURKB (human) (UniProt Q96GD4)
# [7] = target: EPHB3 (human) (UniProt P54753)
# [8] = target: IKBKB (human) (UniProt O14920); details: compound 0.01 µM
# [9] = target: MAPKAPK5 (human) (UniProt Q8IW41)
# [10] = target: YES1 (human) (UniProt P07947)
# [11] = target: MAPK15 (human) (UniProt Q8TD08)
# [12] = target: MAPK14 (human) (UniProt Q16539)
# [13] = target: EPHB2 (human) (UniProt P29323)
# [14] = target: CSK (human) (UniProt P41240)
# [15] = target: BTK (human) (UniProt Q06187)
# [16] = target: MAP2K2 (human) (UniProt P36507)
# [17] = target: MAP3K7 TAB1 (human) (UniProt Q15750+O43318)
# [18] = target: PIM1 (human) (UniProt P11309)
# [19] = target: MAPKAPK2 (human) (UniProt P49137)
# [20] = target: MINK1 (human) (UniProt Q8N4C8)
# [21] = target: MAP3K11 (human) (UniProt Q16584)
# [22] = target: MAPK8 (human) (UniProt P45983)
# [23] = target: MELK (human) (UniProt Q14680)
# [24] = target: HIPK2 (human) (UniProt Q9H2X6)
# [25] = target: IGF1R (human) (UniProt P08069)
# [26] = target: IKBKE (human) (UniProt Q14164)
# [27] = target: MAPK12 (human) (UniProt P53778)
# [28] = target: MKNK2 (human) (UniProt Q9HBH9)
# [29] = target: EPHA4 (human) (UniProt P54764)
# [30] = target: PRKACA (human) (UniProt P17612)
# [31] = target: DYRK1A (human) (UniProt Q13627)
# [32] = target: PAK7 (human) (UniProt Q9P286)
# [33] = target: DYRK2 (human) (UniProt Q92630)
# [34] = target: PAK4 (human) (UniProt O96013)
# [35] = target: BRSK1 (human) (UniProt Q8TDC3)
# Chain of MAPK8 (human) (P45983 whole entry, looked up): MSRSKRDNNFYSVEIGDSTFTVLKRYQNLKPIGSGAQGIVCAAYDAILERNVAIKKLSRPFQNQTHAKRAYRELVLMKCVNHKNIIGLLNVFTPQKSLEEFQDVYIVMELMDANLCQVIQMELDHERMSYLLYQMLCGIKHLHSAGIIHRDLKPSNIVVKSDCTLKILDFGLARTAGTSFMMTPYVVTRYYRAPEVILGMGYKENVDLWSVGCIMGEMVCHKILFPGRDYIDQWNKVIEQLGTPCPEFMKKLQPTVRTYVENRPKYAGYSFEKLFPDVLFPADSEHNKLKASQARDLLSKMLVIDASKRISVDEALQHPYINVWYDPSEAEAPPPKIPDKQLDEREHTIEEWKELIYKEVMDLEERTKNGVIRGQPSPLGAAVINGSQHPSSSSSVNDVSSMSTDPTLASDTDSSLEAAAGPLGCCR
# Chain of MAP2K2 (human) (P36507 whole entry, looked up): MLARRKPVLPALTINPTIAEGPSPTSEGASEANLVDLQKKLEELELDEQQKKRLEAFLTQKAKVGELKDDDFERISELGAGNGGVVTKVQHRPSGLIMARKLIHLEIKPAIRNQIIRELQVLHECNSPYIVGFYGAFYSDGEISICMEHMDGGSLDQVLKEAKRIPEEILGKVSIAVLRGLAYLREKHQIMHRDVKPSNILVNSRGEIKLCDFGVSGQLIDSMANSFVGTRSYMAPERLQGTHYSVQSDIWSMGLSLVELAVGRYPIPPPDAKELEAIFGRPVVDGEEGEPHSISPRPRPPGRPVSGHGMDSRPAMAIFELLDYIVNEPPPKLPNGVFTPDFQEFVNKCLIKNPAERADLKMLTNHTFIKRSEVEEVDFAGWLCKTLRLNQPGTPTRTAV
# Chain of IKBKE (human) (Q14164 whole entry, looked up): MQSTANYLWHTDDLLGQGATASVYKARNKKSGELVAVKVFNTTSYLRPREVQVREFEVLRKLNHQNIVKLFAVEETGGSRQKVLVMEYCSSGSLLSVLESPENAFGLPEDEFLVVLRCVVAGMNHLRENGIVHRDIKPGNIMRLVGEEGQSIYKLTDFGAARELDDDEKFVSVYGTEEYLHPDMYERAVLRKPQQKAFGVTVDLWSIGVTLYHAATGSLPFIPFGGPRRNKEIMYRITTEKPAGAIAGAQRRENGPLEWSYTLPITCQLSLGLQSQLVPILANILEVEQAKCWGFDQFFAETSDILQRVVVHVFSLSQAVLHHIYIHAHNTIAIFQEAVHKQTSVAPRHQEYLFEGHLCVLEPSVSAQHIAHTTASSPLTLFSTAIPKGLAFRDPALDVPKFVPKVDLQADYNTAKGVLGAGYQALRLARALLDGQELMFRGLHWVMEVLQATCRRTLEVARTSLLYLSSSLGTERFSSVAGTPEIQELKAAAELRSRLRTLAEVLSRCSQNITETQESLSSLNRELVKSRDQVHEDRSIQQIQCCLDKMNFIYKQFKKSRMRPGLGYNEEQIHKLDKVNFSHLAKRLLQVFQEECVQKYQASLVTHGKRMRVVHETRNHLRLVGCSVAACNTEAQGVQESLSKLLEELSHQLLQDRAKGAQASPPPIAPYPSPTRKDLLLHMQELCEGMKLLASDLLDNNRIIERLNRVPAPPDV
# Chain of PAK4 (human) (O96013 whole entry, looked up): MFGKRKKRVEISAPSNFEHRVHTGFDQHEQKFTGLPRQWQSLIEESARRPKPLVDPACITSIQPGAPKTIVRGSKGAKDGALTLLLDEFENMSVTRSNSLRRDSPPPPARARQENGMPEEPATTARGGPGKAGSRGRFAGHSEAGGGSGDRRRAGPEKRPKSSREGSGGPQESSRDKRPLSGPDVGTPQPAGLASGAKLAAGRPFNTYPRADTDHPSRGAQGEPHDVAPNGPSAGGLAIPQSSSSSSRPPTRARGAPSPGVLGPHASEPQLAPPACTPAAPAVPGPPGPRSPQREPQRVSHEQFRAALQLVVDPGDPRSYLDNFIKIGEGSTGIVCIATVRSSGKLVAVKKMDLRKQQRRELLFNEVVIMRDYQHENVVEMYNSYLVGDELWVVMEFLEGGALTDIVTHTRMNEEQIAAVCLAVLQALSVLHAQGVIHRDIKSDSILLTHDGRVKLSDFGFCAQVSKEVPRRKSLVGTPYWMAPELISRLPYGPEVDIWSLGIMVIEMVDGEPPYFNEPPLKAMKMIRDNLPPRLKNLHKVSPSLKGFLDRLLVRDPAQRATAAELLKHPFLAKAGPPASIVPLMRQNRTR
# Chain of HIPK2 (human) (Q9H2X6 whole entry, looked up): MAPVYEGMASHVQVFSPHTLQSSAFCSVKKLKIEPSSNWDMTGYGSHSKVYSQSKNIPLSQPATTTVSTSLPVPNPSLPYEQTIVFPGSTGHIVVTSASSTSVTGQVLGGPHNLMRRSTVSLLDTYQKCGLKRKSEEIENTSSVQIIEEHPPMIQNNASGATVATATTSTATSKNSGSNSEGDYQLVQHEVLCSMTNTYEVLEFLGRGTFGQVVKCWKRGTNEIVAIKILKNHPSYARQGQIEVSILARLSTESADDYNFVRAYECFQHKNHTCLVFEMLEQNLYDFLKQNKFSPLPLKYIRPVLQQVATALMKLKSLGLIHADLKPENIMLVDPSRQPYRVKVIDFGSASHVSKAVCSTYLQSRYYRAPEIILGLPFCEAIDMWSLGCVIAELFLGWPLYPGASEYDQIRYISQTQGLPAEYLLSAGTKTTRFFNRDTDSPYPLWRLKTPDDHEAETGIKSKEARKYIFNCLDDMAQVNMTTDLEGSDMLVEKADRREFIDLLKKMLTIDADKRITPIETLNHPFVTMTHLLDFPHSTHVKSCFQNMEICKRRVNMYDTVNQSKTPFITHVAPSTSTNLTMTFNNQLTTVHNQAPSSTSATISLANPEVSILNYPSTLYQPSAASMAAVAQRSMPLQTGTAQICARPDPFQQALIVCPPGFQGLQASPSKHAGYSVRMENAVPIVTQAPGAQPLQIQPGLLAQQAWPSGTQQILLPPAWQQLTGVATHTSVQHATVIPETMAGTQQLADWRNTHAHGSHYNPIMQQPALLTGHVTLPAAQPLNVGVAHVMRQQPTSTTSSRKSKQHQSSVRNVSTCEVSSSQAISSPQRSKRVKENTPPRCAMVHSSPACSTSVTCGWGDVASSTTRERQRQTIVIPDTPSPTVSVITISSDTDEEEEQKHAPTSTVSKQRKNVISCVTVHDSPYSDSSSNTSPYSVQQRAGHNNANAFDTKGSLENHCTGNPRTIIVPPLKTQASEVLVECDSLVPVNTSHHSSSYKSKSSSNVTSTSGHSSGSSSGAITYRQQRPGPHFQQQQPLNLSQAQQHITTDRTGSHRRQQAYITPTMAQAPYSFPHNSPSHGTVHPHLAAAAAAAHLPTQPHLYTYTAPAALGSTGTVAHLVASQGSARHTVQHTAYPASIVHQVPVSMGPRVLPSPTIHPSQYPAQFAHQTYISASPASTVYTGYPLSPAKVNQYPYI
# Chain of DYRK2 (human) (Q92630 whole entry, looked up): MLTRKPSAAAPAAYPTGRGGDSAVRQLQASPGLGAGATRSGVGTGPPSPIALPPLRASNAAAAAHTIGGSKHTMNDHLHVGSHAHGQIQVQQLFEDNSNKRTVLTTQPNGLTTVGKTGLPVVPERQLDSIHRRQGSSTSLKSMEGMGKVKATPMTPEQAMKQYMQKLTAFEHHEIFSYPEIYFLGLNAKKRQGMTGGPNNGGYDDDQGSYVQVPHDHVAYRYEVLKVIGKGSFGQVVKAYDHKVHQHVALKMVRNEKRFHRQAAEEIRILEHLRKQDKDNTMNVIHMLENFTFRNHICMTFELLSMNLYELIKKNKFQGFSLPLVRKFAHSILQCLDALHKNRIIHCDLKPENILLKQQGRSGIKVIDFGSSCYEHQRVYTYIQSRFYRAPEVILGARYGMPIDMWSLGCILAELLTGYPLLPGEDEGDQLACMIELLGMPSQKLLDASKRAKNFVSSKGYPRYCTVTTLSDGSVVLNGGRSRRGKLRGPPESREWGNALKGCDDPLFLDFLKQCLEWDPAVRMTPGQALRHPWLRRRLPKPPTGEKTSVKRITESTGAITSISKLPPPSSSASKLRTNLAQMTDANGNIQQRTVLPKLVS
# Chain of CSK (human) (P41240 whole entry, looked up): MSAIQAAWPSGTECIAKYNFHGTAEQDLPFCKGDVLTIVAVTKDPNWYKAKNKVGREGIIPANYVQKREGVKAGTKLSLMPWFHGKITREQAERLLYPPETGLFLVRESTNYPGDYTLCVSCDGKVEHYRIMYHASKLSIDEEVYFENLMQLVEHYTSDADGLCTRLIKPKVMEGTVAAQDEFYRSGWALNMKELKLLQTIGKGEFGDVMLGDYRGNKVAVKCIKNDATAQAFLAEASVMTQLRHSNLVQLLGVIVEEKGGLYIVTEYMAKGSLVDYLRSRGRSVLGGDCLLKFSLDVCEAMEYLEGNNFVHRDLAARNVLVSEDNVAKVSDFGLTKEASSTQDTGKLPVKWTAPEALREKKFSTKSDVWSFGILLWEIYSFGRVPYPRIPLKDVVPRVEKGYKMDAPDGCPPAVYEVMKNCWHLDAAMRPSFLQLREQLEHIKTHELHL
# Chain of YES1 (human) (P07947 whole entry, looked up): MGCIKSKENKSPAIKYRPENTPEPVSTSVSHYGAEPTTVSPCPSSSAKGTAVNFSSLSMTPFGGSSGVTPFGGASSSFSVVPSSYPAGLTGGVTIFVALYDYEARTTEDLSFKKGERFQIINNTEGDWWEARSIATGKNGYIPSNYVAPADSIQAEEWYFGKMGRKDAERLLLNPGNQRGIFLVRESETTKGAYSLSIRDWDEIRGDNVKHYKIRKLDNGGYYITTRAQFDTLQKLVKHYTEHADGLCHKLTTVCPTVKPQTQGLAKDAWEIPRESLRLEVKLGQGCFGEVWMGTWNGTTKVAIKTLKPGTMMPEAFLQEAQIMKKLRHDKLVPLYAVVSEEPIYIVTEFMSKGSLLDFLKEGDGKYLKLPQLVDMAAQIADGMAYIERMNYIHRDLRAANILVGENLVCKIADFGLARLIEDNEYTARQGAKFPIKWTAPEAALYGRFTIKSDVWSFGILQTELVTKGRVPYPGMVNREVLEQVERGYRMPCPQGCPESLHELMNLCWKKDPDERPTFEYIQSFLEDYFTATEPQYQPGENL
smiles,measurement,setting,value
O=C(Nc1nc2cc(C(F)(F)F)cc(NC3CC3)n2n1)c1cccnc1,residual activity,[1]; compound 0.01 µM,116%
same,residual activity,[1]; compound 0.1 µM,128%
same,residual activity,[1]; compound 1.0 µM,109%
same,residual activity,[2]; compound 0.01 µM,92%
same,residual activity,[2]; compound 0.1 µM,93%
same,residual activity,[2]; compound 1.0 µM,59%
same,residual activity,[3]; compound 0.01 µM,89%
same,residual activity,[3]; compound 0.1 µM,87%
same,residual activity,[3]; compound 1.0 µM,89%
same,residual activity,[4]; compound 0.01 µM,89%
same,residual activity,[4]; compound 0.1 µM,84%
same,residual activity,[4]; compound 1.0 µM,90%
same,residual activity,[5]; compound 0.01 µM,108%
same,residual activity,[5]; compound 0.1 µM,96%
same,residual activity,[5]; compound 1.0 µM,105%
same,residual activity,[6]; compound 0.01 µM,93%
same,residual activity,[6]; compound 0.1 µM,103%
same,residual activity,[6]; compound 1.0 µM,89%
same,residual activity,[7]; compound 0.01 µM,99%
same,residual activity,[7]; compound 0.1 µM,95%
same,residual activity,[7]; compound 1.0 µM,99%
same,residual activity,[8],79%
same,residual activity,[9]; compound 0.01 µM,97%
same,residual activity,[9]; compound 0.1 µM,112%
same,residual activity,[9]; compound 1.0 µM,98%
same,residual activity,[10]; compound 0.01 µM,81%
same,residual activity,[10]; compound 0.1 µM,87%
same,residual activity,[10]; compound 1.0 µM,74%
same,residual activity,[11]; compound 0.01 µM,102%
same,residual activity,[11]; compound 0.1 µM,110%
same,residual activity,[11]; compound 1.0 µM,102%
same,residual activity,[12]; compound 0.01 µM,109%
same,residual activity,[12]; compound 0.1 µM,121%
same,residual activity,[12]; compound 1.0 µM,114%
same,residual activity,[13]; compound 0.1 µM,108%
same,residual activity,[13]; compound 1.0 µM,95%
same,residual activity,[14]; compound 0.01 µM,96%
same,residual activity,[14]; compound 0.1 µM,95%
same,residual activity,[14]; compound 1.0 µM,89%
same,residual activity,[15]; compound 0.01 µM,108%
same,residual activity,[15]; compound 0.1 µM,103%
same,residual activity,[15]; compound 1.0 µM,101%
same,residual activity,[16]; compound 0.01 µM,90%
same,residual activity,[16]; compound 0.1 µM,90%
same,residual activity,[16]; compound 1.0 µM,69%
same,residual activity,[17]; compound 0.01 µM,92%
same,residual activity,[17]; compound 1.0 µM,84%
same,residual activity,[18]; compound 0.01 µM,104%
same,residual activity,[18]; compound 0.1 µM,96%
same,residual activity,[18]; compound 1.0 µM,98%
same,residual activity,[19]; compound 0.01 µM,99%
same,residual activity,[19]; compound 0.1 µM,102%
same,residual activity,[19]; compound 1.0 µM,99%
same,residual activity,[20]; compound 0.01 µM,125%
same,residual activity,[20]; compound 0.1 µM,113%
same,residual activity,[20]; compound 1.0 µM,120%
same,residual activity,[21]; compound 0.01 µM,88%
same,residual activity,[21]; compound 0.1 µM,104%
same,residual activity,[21]; compound 1.0 µM,87%
same,residual activity,[22]; compound 0.01 µM,87%
same,residual activity,[22]; compound 0.1 µM,93%
same,residual activity,[22]; compound 1.0 µM,91%
same,residual activity,[23]; compound 0.01 µM,97%
same,residual activity,[23]; compound 0.1 µM,107%
same,residual activity,[23]; compound 1.0 µM,92%
same,residual activity,[24]; compound 0.01 µM,100%
same,residual activity,[24]; compound 0.1 µM,116%
same,residual activity,[24]; compound 1.0 µM,105%
same,residual activity,[25]; compound 0.01 µM,88%
same,residual activity,[25]; compound 0.1 µM,89%
same,residual activity,[25]; compound 1.0 µM,79%
same,residual activity,[26]; compound 0.01 µM,114%
same,residual activity,[26]; compound 0.1 µM,106%
same,residual activity,[26]; compound 1.0 µM,96%
same,residual activity,[27]; compound 0.01 µM,71%
same,residual activity,[27]; compound 0.1 µM,102%
same,residual activity,[27]; compound 1.0 µM,80%
same,residual activity,[28]; compound 0.01 µM,95%
same,residual activity,[28]; compound 1.0 µM,91%
same,residual activity,[29]; compound 0.01 µM,101%
same,residual activity,[29]; compound 0.1 µM,124%
same,residual activity,[29]; compound 1.0 µM,93%
same,residual activity,[30]; compound 0.01 µM,98%
same,residual activity,[30]; compound 0.1 µM,99%
same,residual activity,[30]; compound 1.0 µM,88%
same,residual activity,[31]; compound 0.01 µM,94%
same,residual activity,[31]; compound 0.1 µM,92%
same,residual activity,[31]; compound 1.0 µM,81%
same,residual activity,[32]; compound 0.01 µM,97%
same,residual activity,[32]; compound 0.1 µM,114%
same,residual activity,[32]; compound 1.0 µM,91%
same,residual activity,[33]; compound 0.01 µM,104%
same,residual activity,[33]; compound 0.1 µM,92%
same,residual activity,[33]; compound 1.0 µM,90%
same,residual activity,[34]; compound 0.01 µM,111%
same,residual activity,[34]; compound 0.1 µM,98%
same,residual activity,[34]; compound 1.0 µM,102%
same,residual activity,[35]; compound 0.01 µM,102%
same,residual activity,[35]; compound 0.1 µM,90%
same,residual activity,[35]; compound 1.0 µM,95%
